What all share (assay type): cell-based
The subject of assay [1] is Marburg virus (MARV). Put plainly: organism not typed. As to conditions: Vero, 72 h, read-out: Percent viral inhibition MARV.
The test system of assay [2] is dengue virus (DENV). Put plainly: microbe, parasite or virus in culture. The note with it: Dengue virus, Vero, 120 h, read-out: Percent viral inhibition DENY.
The test system of assay [3] is Chikungunya virus (CHIKV). Put plainly: microbe, parasite or virus in culture. The note with it: Chikungunya virus, Vero, 48 h, read-out: Percent viral inhibition CHKV.

Usually inhibition stands for how much of the control response was suppressed.

Take `CN1CCN(c2ncc(Oc3cc(CN4CCO[C@H](CO)CC4)cc(-c4cc(Cl)cc(Cl)c4)n3)cn2)CC1` [Example 330, (S)-(4-((2-(3,5-dichlorophenyl)-6-((2-(4-methylpiperazin-1-yl)pyrimidin-5-yl)oxy)pyridin-4-yl)methyl)-1,4-oxazepan-7-yl)methanol]: the inhibition at 1 µM in assay [1] is 58.7%; in assay [2] it was 26.4%; in assay [3] it was 24.6%.

In the case of `CN1CCN(c2ncc(Oc3cc(CN4CCC(P(C)(C)=O)CC4)cc(-c4cc(Cl)cc(Cl)c4)n3)cn2)CC1` [Example 331, (1-((2-(3,5-dichlorophenyl)-6-((2-(4-methylpiperazin-1-yl)pyrimidin-5-yl)oxy)pyridin-4-yl)methyl)piperidin-4-yl)dimethylphosphineoxide], the inhibition at 1 µM in assay [1] came to 69.3%; in assay [2], 56.5%; in assay [3] it was 22.6%.

On to `O=C(O)CC1CCN(Cc2cc(Oc3cnc(N4CCN5CCC4C5)nc3)nc(-c3cc(Cl)cc(Cl)c3)c2)CC1` (stereo not drawn) [Example 334, 2-(1-((2-((2-(1,4-diazabicyclo[3.2.1]octan-4-yl)pyrimidin-5-yl)oxy)-6-(3,5-dichlorophenyl)pyridin-4-yl)methyl)piperidin-4-yl)acetic acid], for which the inhibition at 1 µM in assay [1] came out at 41.4%; in assay [2], 20.8%; in assay [3], 29.6%.

On to `O=C(O)C1[C@H]2CCN(Cc3cc(Oc4cnc(N5CCN6CCC5C6)nc4)nc(-c4cc(Cl)cc(Cl)c4)c3)CC[C@@H]12` (stereo partly drawn) [Example 337, (1R,7S,8r)-4-((2-((2-(1,4-diazabicyclo[3.2.1]octan-4-yl)pyrimidin-5-yl)oxy)-6-(3,5-dichlorophenyl)pyridin-4-yl)methyl)-4-azabicyclo[5.1.0] octane-8-carboxylic acid], for which the results for the inhibition at 1 µM in assay [1], in assay [2] and in assay [3] were 37.6%, 0% and 15.9%, respectively.

Consider `FC1CCN(Cc2cc(Oc3cnc(N4CCN5CCC4C5)nc3)nc(-c3cc(Cl)cc(Cl)c3)c2)CC1` (stereo not drawn) [Example 338, 4-(5-((6-(3,5-dichlorophenyl)-4-((4-fluoropiperidin-1-yl)methyl)pyridin-2-yl)oxy)pyrimidin-2-yl)-1,4-diazabicyclo[3.2.1]octane], for which the inhibition at 1 µM in assay [1] was found to be 12.2%; in assay [2] it was 55.4%; in assay [3] it was 19.3%.

Regarding `CN1CCN(c2cnc(Oc3cc(CN4CCC(CC(=O)O)CC4)cc(-c4cc(Cl)cc(Cl)c4)n3)cn2)CC1` [Example 339, 2-(1-((2-(3,5-dichlorophenyl)-6-((5-(4-methylpiperazin-1-yl)pyrazin-2-yl)oxy)pyridin-4-yl)methyl)piperidin-4-yl)acetic acid], the inhibition at 1 µM came out at 52.1% in assay [1], 0% in assay [2] and 23.6% in assay [3].

With `CC(CCN1CCN(c2cnc(Oc3cc(CN4CCC(CCO)CC4)cc(-c4cc(Cl)cc(Cl)c4)n3)cn2)CC1)C(=O)O` (stereo not drawn) [Example 341, 4-(4-(5-((6-(3,5-dichlorophenyl)-4-((4-(2-hydroxyethyl)piperidin-1-yl)methyl)pyridin-2-yl)oxy)pyrazin-2-yl)piperazin-1-yl)-2-methylbutanoic acid], the results for the inhibition at 1 µM in assay [1], in assay [2] and in assay [3] were 50.5%, 31.2% and 29.2%, respectively.

For the molecule `CC(C)(O)CN1CCN(c2cnc(Oc3cc(CN4CCC(CC(=O)O)CC4)cc(-c4cc(Cl)cc(Cl)c4)n3)cn2)CC1` [Example 343, 2-(1-((2-(3,5-dichlorophenyl)-6-((5-(4-(2-hydroxy-2-methylpropyl)piperazin-1-yl)pyrazin-2-yl)oxy)pyridin-4-yl)methyl)piperidin-4-yl)acetic acid], the figures for the inhibition at 1 µM in assay [1], in assay [2] and in assay [3] were 51%, 28.6% and 35.7%, respectively.

Take `O=C(O)CC1CCN(Cc2cc(Oc3ccc(N4CCN5CCC4C5)nn3)nc(-c3cc(Cl)cc(Cl)c3)c2)CC1` (stereo not drawn) [Example 344, 2-(1-((2-((6-(1,4-diazabicyclo[3.2.1]octan-4-yl)pyridazin-3-yl)oxy)-6-(3,5-dichlorophenyl)pyridin-4-yl)methyl)piperidin-4-yl)acetic acid]: the results for the inhibition at 1 µM in assay [1], in assay [2] and in assay [3] were 43.5%, 77.9% and 26.6%, respectively.

As for `CCN1CCCN(c2cnc(Oc3cc(CN4CCC(CC(=O)O)CC4)cc(-c4cc(Cl)cc(Cl)c4)n3)cn2)CC1` [Example 345, 2-(1-((2-(3,5-dichlorophenyl)-6-((5-(4-ethyl-1,4-diazepan-1-yl)pyrazin-2-yl)oxy)pyridin-4-yl)methyl)piperidin-4-yl)acetic acid], the inhibition at 1 µM in assay [1] worked out at 57%; in assay [2] it was 44%; in assay [3], 22.1%.

In the case of `CN1C[C@@H]2C[C@H]1CN2c1cnc(Oc2cc(CN3CCC(CC(=O)O)CC3)cc(-c3cc(Cl)cc(Cl)c3)n2)cn1` [Example 346, 2-(1-((2-(3,5-dichlorophenyl)-6-((5-((1S,4S)-5-methyl-2,5-diazabicyclo[2.2.1]heptan-2-yl)pyrazin-2-yl)oxy)pyridin-4-yl)methyl)piperidin-4-yl)acetic acid], the inhibition at 1 µM in assay [1] came to 56.8%; in assay [2], 54.6%; in assay [3], 9.36%.

As for `CC(C)N1CCN(c2cnc(Oc3cc(CN4CCC(CC(=O)O)CC4)cc(-c4cc(Cl)cc(Cl)c4)n3)cn2)CC1` [Example 347, 2-(1-((2-(3,5-dichlorophenyl)-6-((5-(4-isopropylpiperazin-1-yl)pyrazin-2-yl)oxy)pyridin-4-yl)methyl)piperidin-4-yl)acetic acid], the inhibition at 1 µM in assay [1] came out at 57.7%; in assay [2] it was 56.8%; in assay [3], 24.9%.

For `O=C(O)CC1CCN(Cc2cc(Oc3cnc(N4CCN5CCC4C5)cn3)nc(-c3cc(Cl)cc(Cl)c3)c2)CC1` (stereo not drawn) [Example 348, 2-(1-((2-((5-(1,4-diazabicyclo[3.2.1]octan-4-yl)pyrazin-2-yl)oxy)-6-(3,5-dichlorophenyl)pyridin-4-yl)methyl)piperidin-4-yl)acetic acid], the inhibition at 1 µM in assay [1] turned out to be 46.6%; in assay [2], 55.8%; in assay [3], 35.8%.

In the case of `CC(O)CCN1CCN(c2cnc(Oc3cc(CN4CCC(CC(=O)O)CC4)cc(-c4cc(Cl)cc(Cl)c4)n3)cn2)CC1` (stereo not drawn) [Example 349, 2-(1-((2-(3,5-dichlorophenyl)-6-((5-(4-(3-hydroxybutyl)piperazin-1-yl)pyrazin-2-yl)oxy)pyridin-4-yl)methyl)piperidin-4-yl)acetic acid], the inhibition at 1 µM in assay [1] worked out at 64.5%; in assay [2] it was 57.6%; in assay [3], 26.2%.

Turning to `CN1CCN(c2cnc(Oc3cc(CN4CCC(CCO)CC4)cc(-c4cc(Cl)cc(Cl)c4)n3)cn2)CC1` [Example 350, 2-(1-((2-(3,5-dichlorophenyl)-6-((5-(4-methylpiperazin-1-yl)pyrazin-2-yl)oxy)pyridin-4-yl)methyl)piperidin-4-yl)ethanol], the inhibition at 1 µM stood at 29.9% in assay [1], 22.8% in assay [2] and 0% in assay [3].

For the molecule `CC(CC1CCN(Cc2cc(Oc3cnc(N4CCCN(C)CC4)cn3)nc(-c3cc(Cl)cc(Cl)c3)c2)CC1)C(=O)O` (stereo not drawn) [Example 351, 3-(1-((2-(3,5-dichlorophenyl)-6-((5-(4-methyl-1,4-diazepan-1-yl)pyrazin-2-yl)oxy)pyridin-4-yl)methyl)piperidin-4-yl)-2-methylpropanoic acid], the inhibition at 1 µM amounted to 60.4% in assay [1], 42.8% in assay [2] and 22.7% in assay [3].

With `CN1C2CC1CN(c1cnc(Oc3cc(CN4CCC(CC(=O)O)CC4)cc(-c4cc(Cl)cc(Cl)c4)n3)cn1)C2` [Example 352, 2-(1-((2-(3,5-dichlorophenyl)-6-((5-(6-methyl-3,6-diazabicyclo[3.1.l]heptan-3-yl)pyrazin-2-yl)oxy)pyridin-4-yl)methyl)piperidin-4-yl)acetic acid], the inhibition at 1 µM in assay [1] was determined as 47.9%; in assay [2] it was 13.1%; in assay [3] it was 31%.

`CN1CCN(c2cnc(Oc3cc(CN4CCC(OC5(C(=O)O)CC5)CC4)cc(-c4cc(Cl)cc(Cl)c4)n3)cn2)CC1` [Example 353, 1-((1-((2-(3,5-dichlorophenyl)-6-((5-(4-methylpiperazin-1-yl)pyrazin-2-yl)oxy)pyridin-4-yl)methyl)piperidin-4-yl)oxy)cyclopropanecarboxylic acid]: the inhibition at 1 µM in assay [1] came to 35.4%; in assay [2], 51.3%; in assay [3], 16.6%.

For the molecule `CS(=O)(=O)CCCN1CCN(c2cnc(Oc3cc(CN4CCC(CC(=O)O)CC4)cc(-c4cc(Cl)cc(Cl)c4)n3)cn2)CC1` [Example 354, 2-(1-((2-(3,5-dichlorophenyl)-6-((5-(4-(3-(methylsulfonyl)propyl)piperazin-1-yl)pyrazin-2-yl)oxy)pyridin-4-yl)methyl)piperidin-4-yl)acetic acid], the inhibition at 1 µM is 45.2% in assay [1], 40.8% in assay [2] and 17.2% in assay [3].

Take `CCN1CCCN(c2ccc(Oc3cc(CN4CCC(CC(=O)O)CC4)cc(-c4cc(Cl)cc(Cl)c4)n3)nn2)CC1` [Example 355, 2-(1-((2-(3,5-dichlorophenyl)-6-((6-(4-ethyl-1,4-diazepan-1-yl)pyridazin-3-yl)oxy)pyridin-4-yl)methyl)piperidin-4-yl)acetic acid]: the inhibition at 1 µM stood at 52.4% in assay [1], 30.2% in assay [2] and 22% in assay [3].

For the molecule `CN1CCCN(c2ccc(Oc3cc(CN4CCC(CC(=O)O)CC4)cc(-c4cc(Cl)cc(Cl)c4)n3)nn2)CC1` [Example 356, 2-(1-((2-(3,5-dichlorophenyl)-6-((6-(4-methyl-1,4-diazepan-1-yl)pyridazin-3-yl)oxy)pyridin-4-yl)methyl)piperidin-4-yl)acetic acid], the inhibition at 1 µM stood at 54.3% in assay [1], 49.3% in assay [2] and 30.8% in assay [3].

The record behind these values is US20230011571A1, “SMALL MOLECULE FURIN INHIBITORS FOR TREATING INFECTIOUS DISEASES” (BP Asset V, Inc., priority 2019, published 2023).
